What was measured:
Details in all cases: 48 h
SEM cells [1] = experiment: cell viability relative to DMSO control; higher = less cytotoxic
Method in brief: (§1)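 In 1536-well plates, 5 μl of leukemia cells were seeded per well: 500 cells/well for NOMO1 or SEM and 1000 cells/well for P12-Ichikawa. Each line had first been adapted for at least four passages in each medium. Library compounds in DMSO were pin-dosed at 11 threefold concentrations between 47 μM and 0.79 nM, and CellTiter-Glo One luminescence was read after 48 h at 37°C. Viability is a per-plate percentage relative to DMSO wells, with cell-free wells as background.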

NOMO1 [2] = experiment: as above
Method in brief: as §1

P12-Ichikawa [3] = experiment: as above
Method in brief: as §1

SEM cells [4] = experiment: AUC of viability dose-response curve (% viability x log10 dose units); higher = less sensitive
Method in brief: (§2)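 Library compounds in DMSO were applied for 48 h at 37°C at 11 threefold doses (47 μM to 0.79 nM) to medium-adapted leukemia cells in 1536-well plates holding 500 or 1000 cells/well. Luminescence from CellTiter-Glo One was normalised plate by plate against DMSO and cell-free wells. Area under the curve came from trapezoidal integration of a log-logistic fit, after scaling curves that rose above full viability and discarding those that failed quality control. The fit had four parameters and used log10 doses.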

NOMO1 [5] = experiment: as above
Method in brief: as §2

P12-Ichikawa [6] = experiment: as above
Method in brief: as §2

CC[C@@]1(O)C(=O)OC\C2=C1\C=C\3N(CC4=C3N=C5C=CC=CC5=C4)C2=O
cell viability [%]
Details	NOMO1 [2]	P12-Ichikawa [3]	SEM cells [1]
HPLM + 10% dialyzed FBS, 0.000781 µM	122	122	126
HPLM + 10% dialyzed FBS, 0.00234 µM	115	120	116
HPLM + 10% dialyzed FBS, 0.00702 µM	145	107	110
HPLM + 10% dialyzed FBS, 0.0211 µM	120	86.1	103
HPLM + 10% dialyzed FBS, 0.0632 µM	80.4	13.3	40.3
HPLM + 10% dialyzed FBS, 0.19 µM	30.3	10.1	14.9
HPLM + 10% dialyzed FBS, 0.569 µM	30.7	7.26	7.26
HPLM + 10% dialyzed FBS, 1.71 µM	28.6	5.09	4.92
HPLM + 10% dialyzed FBS, 5.12 µM	21.1	4.83	4.54
HPLM + 10% dialyzed FBS, 15.4 µM	14.9	3.78	4.65
HPLM + 10% dialyzed FBS, 46.1 µM	25.7	5.54	5.06
RPMI 5 mM glucose + 10% FBS, 0.000781 µM	117	115	105
RPMI 5 mM glucose + 10% FBS, 0.00234 µM	106	113	86.8
RPMI 5 mM glucose + 10% FBS, 0.00702 µM	120	116	87.2
RPMI 5 mM glucose + 10% FBS, 0.0211 µM	106	69.9	55.3
RPMI 5 mM glucose + 10% FBS, 0.0632 µM	77.5	10.9	15.3
RPMI 5 mM glucose + 10% FBS, 0.19 µM	22.3	7.97	11.4
RPMI 5 mM glucose + 10% FBS, 0.569 µM	20.8	6.35	6.29
RPMI 5 mM glucose + 10% FBS, 1.71 µM	20.4	4.58	3.5
RPMI 5 mM glucose + 10% FBS, 5.12 µM	11.9	3.68	3.72
RPMI 5 mM glucose + 10% FBS, 15.4 µM	16.7	3.91	3.35
RPMI 5 mM glucose + 10% FBS, 46.1 µM	17.9	6.1	4.07
RPMI 5 mM glucose + 10% dialyzed FBS, 0.000781 µM	126	115	127
RPMI 5 mM glucose + 10% dialyzed FBS, 0.00234 µM	110	115	119
RPMI 5 mM glucose + 10% dialyzed FBS, 0.00702 µM	121	107	105
RPMI 5 mM glucose + 10% dialyzed FBS, 0.0211 µM	103	59.8	77.2
RPMI 5 mM glucose + 10% dialyzed FBS, 0.0632 µM	76.5	16.8	28.1
RPMI 5 mM glucose + 10% dialyzed FBS, 0.19 µM	28.9	9.84	13.4
RPMI 5 mM glucose + 10% dialyzed FBS, 0.569 µM	28.6	7.6	7.26
RPMI 5 mM glucose + 10% dialyzed FBS, 1.71 µM	27.5	5.62	4.41
RPMI 5 mM glucose + 10% dialyzed FBS, 5.12 µM	21.9	4.44	4.16
RPMI 5 mM glucose + 10% dialyzed FBS, 15.4 µM	22.4	4.32	4.15
RPMI 5 mM glucose + 10% dialyzed FBS, 46.1 µM	14	6.06	4.83

AUC of viability dose-response curve
Details	NOMO1 [5]	P12-Ichikawa [6]	SEM cells [4]
HPLM + 10% dialyzed FBS	248	172	190
RPMI 5 mM glucose + 10% FBS	241	164	158
RPMI 5 mM glucose + 10% dialyzed FBS	246	161	165

COc1cccc([C@@H](C)NCCCc2ccccc2Cl)c1
cell viability [%]
Details	NOMO1 [2]	P12-Ichikawa [3]	SEM cells [1]
HPLM + 10% dialyzed FBS, 0.000781 µM	83	93.8	88.5
HPLM + 10% dialyzed FBS, 0.00234 µM	104	98	90.3
HPLM + 10% dialyzed FBS, 0.00702 µM	83.2	89.9	95.2
HPLM + 10% dialyzed FBS, 0.0211 µM	111	93.3	105
HPLM + 10% dialyzed FBS, 0.0632 µM	91.5	97.5	106
HPLM + 10% dialyzed FBS, 0.19 µM	113	99.9	95.8
HPLM + 10% dialyzed FBS, 0.569 µM	95.6	94.4	81.8
HPLM + 10% dialyzed FBS, 1.71 µM	110	92.7	97.6
HPLM + 10% dialyzed FBS, 5.12 µM	103	99.3	107
HPLM + 10% dialyzed FBS, 15.4 µM	95.9	99.2	96.3
HPLM + 10% dialyzed FBS, 46.1 µM	110	106	101
RPMI 5 mM glucose + 10% FBS, 0.000781 µM	84.4	95	82.6
RPMI 5 mM glucose + 10% FBS, 0.00234 µM	86.1	94.2	100
RPMI 5 mM glucose + 10% FBS, 0.00702 µM	87.2	94.3	79.9
RPMI 5 mM glucose + 10% FBS, 0.0211 µM	97.5	85.9	100
RPMI 5 mM glucose + 10% FBS, 0.0632 µM	93.9	96.9	94
RPMI 5 mM glucose + 10% FBS, 0.19 µM	88	91.9	94.9
RPMI 5 mM glucose + 10% FBS, 0.569 µM	94.7	94.1	84.2
RPMI 5 mM glucose + 10% FBS, 1.71 µM	86.1	92.8	78.7
RPMI 5 mM glucose + 10% FBS, 5.12 µM	94.8	90.6	97.4
RPMI 5 mM glucose + 10% FBS, 15.4 µM	94.6	94.9	100
RPMI 5 mM glucose + 10% FBS, 46.1 µM	101	103	93.5
RPMI 5 mM glucose + 10% dialyzed FBS, 0.000781 µM	86.2	83.1	81.2
RPMI 5 mM glucose + 10% dialyzed FBS, 0.00234 µM	100	87.5	112
RPMI 5 mM glucose + 10% dialyzed FBS, 0.00702 µM	92.3	85.3	92
RPMI 5 mM glucose + 10% dialyzed FBS, 0.0211 µM	84.4	88.1	101
RPMI 5 mM glucose + 10% dialyzed FBS, 0.0632 µM	100	91.3	94
RPMI 5 mM glucose + 10% dialyzed FBS, 0.19 µM	101	90.7	114
RPMI 5 mM glucose + 10% dialyzed FBS, 0.569 µM	87.9	87.4	97.2
RPMI 5 mM glucose + 10% dialyzed FBS, 1.71 µM	90	91.4	95.1
RPMI 5 mM glucose + 10% dialyzed FBS, 5.12 µM	111	95.2	98.6
RPMI 5 mM glucose + 10% dialyzed FBS, 15.4 µM	106	98.1	108
RPMI 5 mM glucose + 10% dialyzed FBS, 46.1 µM	104	99.8	99.6

AUC of viability dose-response curve
Details	NOMO1 [5]	P12-Ichikawa [6]	SEM cells [4]
HPLM + 10% dialyzed FBS	461	440	463
RPMI 5 mM glucose + 10% FBS	437	435	436
RPMI 5 mM glucose + 10% dialyzed FBS	429	432	472
